Results reported in patent EP4324461A1, “(E)-N-CINAMOYLAMINOALKANOLES WITH MELANOGENESIS INHIBITORY ACTIVITY” (UNIWERSYTET JAGIELLONSKI, priority 2022, dated 2024).

What was measured:
Primary melanocytes [1] = test: Safety, MTT test in primary melanocytes; format: cell-based; settings: 48 hours
Description: (§1) In order to test the safety of the compounds, both normal human cells were used: keratinocytes (HaCaT), fibroblasts (BJ), primary melanocytes that occur in the skin, as well as human cancer cells: the hepatocarcinoma line HepG2 and the neuroblastoma line SH-SY5Y, which are considered a model for the assessment of hepatocytotoxicity and neurocytotoxicity. The concentrations of the tested compounds in the range of 250-100 µM were used in the studies. The cell lines used in the research were purchased from the American Type Culture Collection (ATCC) and were cultured in media recommended by the manufacturer with the addition of FBS and antibiotics in an incubator ensuring appropriate culture conditions, i.e. humidity, temperature and CO2 concentration. Cells were seeded into multiwell plates and incubated with the test compounds for 48 hours. After this time, MTT and LDH tests were performed to assess cell viability. The MTT test is based on the ability to transform the substrate: [3-(4,5-dimethyl-2-thiazolyl)-2,5-diphenyl-2H-tetrazolium bromide into a colored product only by living cells. The absorbance at 570 nm, which corresponds to the absorption maximum for the product, is directly proportional to cell viability. The LDH test is based on testing the activity of the enzyme lactate dehydrogenase in the culture medium, which is released from cells as a result of damage to the cell membrane, e.g. as a result of cell death. Triton X-100 was used as a positive control in the test. The determination is colorimetric, the substrate is transformed by the released enzyme into a colored product, an increase in absorbance indicates a larger amount of the released enzyme, and thus confirms greater damage to cell membranes. Tables 7 and 8 present the results obtained, which correspond to the viability of cells incubated with the compounds in relation to the viability of cells constituting a control sample, i.e. incubated with the solvent (DMSO) at the same concentration as in the case of the groups tested in the MTT test or in relation to the results obtained for the Triton X-100 positive control in the LDH test. They indicate that the compounds are safe at the concentrations tested. Table 7. Viability of tested normal human cell lines: keratinocytes (HaCaT), fibroblasts (BJ) and primary melanocytes after incubation with the tested compounds - determination in the MTT test (% of solvent control ± SD) and LDH (percentage of positive control - Triton X-100.

S. typhimurium TA100 = test: Ames microplate test, TA100; format: cell-based, Salmonella typhimurium;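 note: reference level is the mean solvent-control yellow wells plus SD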
Description: (§2) Bacteria were grown overnight in growth medium.
(§3) Table 9. Ames microplate test results.

neuroblastoma SH-SY5Y [2] = test: Safety, MTT test in SH-SY5Y; format: cell-based; settings: 48 hours
Description: as §1

Keratinocytes (HaCaT) [3] = test: Safety, MTT test in keratinocytes; format: cell-based; settings: 48 hours
Description: as §1

Primary melanocytes [4] = test: Safety, LDH test in primary melanocytes; format: cell-based; settings: 48 hours, positive control Triton X-100
Description: as §1

[5] = system: human reconstructed epidermis model EpiDerm™; test: Extended skin irritation test in reconstructed human epidermis (EpiDerm), 2 and 7 days; format: cell-based; settings: 1.0% in 50% PEG (10 µL)
Description: In order to perform extended skin irritation (safety) tests on the reconstructed human epidermis, the exposure time to the tested compounds was extended to 2 and 7 days in the human reconstructed epidermis model EpiDerm™ from MatTek. The epidermis was cultured according to the manufacturer's recommendations, using appropriate multi-well plates and culture media. Solutions of the tested compounds were applied to the epidermis using a positive displacement pipette and distributed using a sterile glass bulb headed Pasteur pipette. […] The epidermis was cultured in an incubator ensuring appropriate humidity, temperature (37 °C) and CO2 concentration (5%). The medium was replaced daily. After an appropriate incubation time, i.e. 2 days or 7 days, the epidermis was rinsed with sterile DPBS and incubated with MTT (Thiazolyl Blue Tetrazolium bromide) solution at 37 °C for 3 hours. After this time, a purple color of formazan was observed, correlated with tissue viability. […] Moreover, in the medium collected after the first 24 hours of EpiDerm epidermis culture, the level of interleukin 1α (Il-1α), which is a mediator of inflammation, was determined. Its level correlates with the unfavorable (irritating) effect of the tested substances on the epidermis. The level of IL-1α was determined using the Cayman Elisa test. […] Table 6. Viability results and results of interleukin 1α concentration measurement in the culture medium in the irritation test in the reconstructed human epidermis model EpiDerm.

[6] = system: Chinese hamster ovary cell line (CHO-K1); test: Cytotoxicity in CHO-K1 cells (MTT) before the micronucleus test; format: cell-based; settings: 24 hours
How it was run: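 CHO-K1 cells in F-12K with 10% FBS, 37 °C, 5% CO2, exposed to compounds for 24 hours. Viability by MTT, relative to DMSO vehicle at matching concentration; used to pick safe concentrations for the micronucleus test.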

neuroblastoma SH-SY5Y [7] = test: Safety, LDH test in SH-SY5Y; format: cell-based; settings: 48 hours, positive control Triton X-100
Description: as §1

Fibroblasts (BJ) = test: Safety, LDH test in fibroblasts; format: cell-based; settings: 48 hours, positive control Triton X-100
Description: as §1

S. typhimurium TA1537 = test: Ames microplate test, TA1537; format: cell-based, Salmonella typhimurium;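 note: reference level is the mean solvent-control yellow wells plus SD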
Description: as §2, §3

Keratinocytes (HaCaT) [8] = test: Safety, LDH test in keratinocytes; format: cell-based; settings: 48 hours, positive control Triton X-100
Description: as §1

O=C(/C=C/c1ccccc1)NCCCCCO [Compound A-133, (2E)-N-(5-hydroxypentyl)-3-phenylprop-2-enamide]
Primary melanocytes MTT (Primary melanocytes [1]; 100 µM): 103.69±2.57 % of solvent control | Primary melanocytes MTT (Primary melanocytes [1]; 150 µM): 101.88±2.47 % of solvent control | Primary melanocytes MTT (Primary melanocytes [1]; 200 µM): 97.05±2.96 % of solvent control | Primary melanocytes MTT (Primary melanocytes [1]; 250 µM): 88.88±2.26 % of solvent control | Increase in the number of yellow wells compared to the reference level (S. typhimurium TA100; 0.5 mM, +S9): 0.83 | Increase in the number of yellow wells compared to the reference level (S. typhimurium TA100; 0.5 mM, without S9): 0.60 | Increase in the number of yellow wells compared to the reference level (S. typhimurium TA100; 1.0 mM, +S9): 0.78 | Increase in the number of yellow wells compared to the reference level (S. typhimurium TA100; 1.0 mM, without S9): 1.03 | Increase in the number of yellow wells compared to the reference level (S. typhimurium TA100; 2.0 mM, +S9): 0.61 | Increase in the number of yellow wells compared to the reference level (S. typhimurium TA100; 2.0 mM, without S9): 0.57 | Neuroblastoma SH-SYSY MTT (neuroblastoma SH-SY5Y [2]; 100 µM): 101.50±3.33 % of solvent control | Neuroblastoma SH-SYSY MTT (neuroblastoma SH-SY5Y [2]; 150 µM): 100.75±3.01 % of solvent control | Neuroblastoma SH-SYSY MTT (neuroblastoma SH-SY5Y [2]; 200 µM): 100.62±5.99 % of solvent control | Neuroblastoma SH-SYSY MTT (neuroblastoma SH-SY5Y [2]; 250 µM): 100.41±1.87 % of solvent control | Keratinocytes (HaCaT) MTT (Keratinocytes (HaCaT) [3]; 100 µM): 101.35±2.17 % of solvent control | Keratinocytes (HaCaT) MTT (Keratinocytes (HaCaT) [3]; 150 µM): 101.40±2.08 % of solvent control | Keratinocytes (HaCaT) MTT (Keratinocytes (HaCaT) [3]; 200 µM): 101.51±2.49 % of solvent control | Keratinocytes (HaCaT) MTT (Keratinocytes (HaCaT) [3]; 250 µM): 95.53±2.80 % of solvent control | Primary melanocytes LDH (Primary melanocytes [4]; 100 µM): 4.68 percentage of positive control | Primary melanocytes LDH (Primary melanocytes [4]; 150 µM): 7.59 percentage of positive control | Primary melanocytes LDH (Primary melanocytes [4]; 200 µM): 16.71 percentage of positive control | Primary melanocytes LDH (Primary melanocytes [4]; 250 µM): 19.45 percentage of positive control | Il-1α in culture medium ([5]; medium after the first 24 hours): 34.99 ± 1.17 pg/mL | Viability [% of control, mean±SD] ([5]; 2 days): 107.19±7.45 % of control | Viability [% of control, mean±SD] ([5]; 7 days): 107.26±21.82 % of control | % Viability [mean] ([6]; 100 µM): 94.6% | % Viability [mean] ([6]; 150 µM): 97.2% | % Viability [mean] ([6]; 200 µM): 89.1% | Neuroblastoma SH-SYSY LDH (neuroblastoma SH-SY5Y [7]; 100 µM): 5.33 percentage of positive control | Neuroblastoma SH-SYSY LDH (neuroblastoma SH-SY5Y [7]; 150 µM): 6.93 percentage of positive control | Neuroblastoma SH-SYSY LDH (neuroblastoma SH-SY5Y [7]; 200 µM): 8.49 percentage of positive control | Neuroblastoma SH-SYSY LDH (neuroblastoma SH-SY5Y [7]; 250 µM): 13.32 percentage of positive control | Fibroblasts (BJ) LDH (Fibroblasts (BJ); 100 µM): 5.00 percentage of positive control | Fibroblasts (BJ) LDH (Fibroblasts (BJ); 150 µM): 4.47 percentage of positive control | Fibroblasts (BJ) LDH (Fibroblasts (BJ); 200 µM): 14.72 percentage of positive control | Fibroblasts (BJ) LDH (Fibroblasts (BJ); 250 µM): 28.31 percentage of positive control | Increase in the number of yellow wells compared to the reference level (S. typhimurium TA1537; 0.5 mM, +S9): 0.18 | Increase in the number of yellow wells compared to the reference level (S. typhimurium TA1537; 0.5 mM, without S9): 1.07 | Increase in the number of yellow wells compared to the reference level (S. typhimurium TA1537; 1.0 mM, +S9): 0.36 | Increase in the number of yellow wells compared to the reference level (S. typhimurium TA1537; 1.0 mM, without S9): 0.54 | Increase in the number of yellow wells compared to the reference level (S. typhimurium TA1537; 2.0 mM, +S9): 0.27 | Increase in the number of yellow wells compared to the reference level (S. typhimurium TA1537; 2.0 mM, without S9): 0.54 | Keratinocytes (HaCaT) LDH (Keratinocytes (HaCaT) [8]; 100 µM): 3.23 percentage of positive control | Keratinocytes (HaCaT) LDH (Keratinocytes (HaCaT) [8]; 150 µM): 3.08 percentage of positive control | Keratinocytes (HaCaT) LDH (Keratinocytes (HaCaT) [8]; 200 µM): 6.38 percentage of positive control | Keratinocytes (HaCaT) LDH (Keratinocytes (HaCaT) [8]; 250 µM): 19.58 percentage of positive control
